The record followed here is patent publication US10315990B2, “Isothiocyanate compounds and isothiocyanate XPO1 protein inhibitor drugs thereof” (DRIVINGFORCE THERAPEUTICS Co., Ltd., priority 2015, dated 2019).

One may read the mortality as the percentage killed. In general, IC50 refers to the concentration that gives 50% inhibition.

In assay [1] the test system is SK-OV3 (high metastasis type ovarian cancer cell line). The assay is described as follows: Ovarian cancer intraperitoneal metastasis animal model. Type of assay: in vivo, nudemice (BALB/c-nu/nu). Particulars: Mus musculus, SK-OV-3, ip.
The next assay concerns Panc-1. Description: Inhibitory activity for other high metastasis type cancer cell line (MTT or CCK-8). In kind it is cell-based. Particulars: Homo sapiens; Panc-1, 72 hours; read-out: IC50.
A further assay deals with IL-6. Description: Serum IL-6 level of IBD animal model (ELISA). In kind it is in vivo, SD rats. Particulars: 80 mg/kg, three days after making the TNBS model. From the text: Inflammatory bowel disease is an autoimmune disease. […] The therapeutic effect of the representative compound for the immune system disease or inflammation can be assessed by detecting change in levels of some important cytokines such as TNF-α and IL-6 at downstream of the signal path.
In general terms: ELISA stands for enzyme-linked immunosorbent assay.

Another assay concerns IBD animal model. The assay is described as follows: Macroscopic pathological changes of IBD animal model (enteroclysis with TNBS). Particulars: TNBS rats. In kind it is in vivo, SD rats. The gist of the method: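 Male SD rats, eight weeks old (10 per group), given rectal TNBS in 50% ethanol at 100 mg/kg 5 cm from anus; controls received saline. Drug treatment for two weeks, then rectum photographed, weighed and scored macroscopically for ulceration and bleeding.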

With `C[S+]([O-])CCCCN=C=S` (centres unmarked) [SFN, sulforaphane, reference compound], the response vs control in vivo at 80 mg/kg in assay [1] (504 h, 80 mg/kg intraperitoneal injection once a day for 3 weeks, read-out: T/C (%)) was 95%. In addition, the mortality at 80 mg/kg in assay [1] (720 h, read-out: Mortality (within 30 days)) was 16.7%. The IC50 in the assay with Panc-1 turned out to be 12.1 µM. Moreover, the “Serum IL-6 level, Animal-1” value in the assay on IL-6 (Animal-1) came to 2.5 ng/mL. Also, in the assay on IL-6 (Animal-2), the “Serum IL-6 level, Animal-2” value was 2.4 ng/mL. For the same compound, the “Serum IL-6 level, Animal-3” value in the assay on IL-6 (Animal-3) was found to be 2.3 ng/mL. This compound had a Macroscopic pathological score in the assay on IBD animal model (80 mg/kg intragastrically daily, score 0-5, 10 animals) of 4.0 ± 0.5. Moreover, the “colon tissue bleeding and ulceration phenomena (in words)” value in the assay on IBD animal model (80 mg/kg) is recorded as “small relief extent”.
